Test [1] has as its target CpomGOBP2c (Cydia pomonella). Briefly: Fluorescence competitive binding assay (1-NPN probe), recombinant CpomGOBP2c. The note with it: 2.0 µM protein in 50 mM Tris-HCl pH 7.4 titrated with 1-NPN, read-out: dissociation constant with 1-NPN. The source says:
(§1) The proteins were recombinantly expressed using an Escherichia coli expression system with an N-His tag. The complete coding regions lacking the signal peptide sequence of CpomGOBP2a, CpomGOBP2b, and CpomGOB2c were subcloned into the NdeI/EcoRI restricted and dephosphorylated pET-28b expression vector. The constructed plasmid was subsequently transformed into E. coli BL21 (DE3) competent cells for further expression. The size and purity of the target proteins were confirmed using sodium dodecyl sulfate-polyacrylamide gel electrophoresis (SDS-PAGE) and Western blot. The proteins were stored at −80 °C for subsequent fluorescence competitive binding experiments.
(§2) Fluorescence competitive binding assays were conducted on a Synergy4 (BioTek Instruments, Winooski, VT, USA) microplate reader using the F96 Black ELIAS Plate (Xinyou Biotechnology, Hangzhou, China). Probe 1-NPN and the tested ligands were dissolved in spectrophotometric-grade methanol to generate 1.0 mM stock solutions. The fluorescence probe 1-NPN was excited at 337 nm, and emission spectra were recorded between 390 and 490 nm. Initially, to test the binding constants of 1-NPN to the CpomGOBP2, a 2.0 µM solution of protein in 50 mM Tris-HCl (pH = 7.4) was titrated with 1 mM of 1-NPN to achieve various concentrations. […] After 2 min of odorant addition, the fluorescence intensity was measured and documented. […]

The target in a further test is CpomGOBP2b (Cydia pomonella, UniProt J7GAV3). Briefly: Fluorescence competitive binding assay (1-NPN probe), recombinant CpomGOBP2b. The conditions noted are these: 2.0 µM protein in 50 mM Tris-HCl pH 7.4 titrated with 1-NPN, read-out: dissociation constant with 1-NPN.
CpomGOBP2b, sequence (J7GAV3 entry or part of it): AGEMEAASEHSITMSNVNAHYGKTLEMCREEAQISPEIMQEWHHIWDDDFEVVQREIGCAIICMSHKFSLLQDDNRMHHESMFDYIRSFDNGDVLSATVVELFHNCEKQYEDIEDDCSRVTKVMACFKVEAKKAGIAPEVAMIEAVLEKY
From the text: as §1, §2

The target in the next test is CpomGOBP2a (Cydia pomonella, UniProt J7G4I1). Put plainly: Fluorescence competitive binding assay (1-NPN probe), recombinant CpomGOBP2a. The conditions noted are these: for Ki: 2.0 µM protein and 2.0 µM 1-NPN, 50 mM Tris-HCl pH 7.4, competitor 2-20 µM, read-out: dissolution constants (Ki).
CpomGOBP2a, sequence (J7G4I1 entry or part of it): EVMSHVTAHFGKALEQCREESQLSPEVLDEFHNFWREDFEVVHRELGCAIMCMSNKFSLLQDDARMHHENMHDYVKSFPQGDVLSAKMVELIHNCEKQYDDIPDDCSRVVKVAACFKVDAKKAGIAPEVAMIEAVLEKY
From the text: as §1
Fluorescence competitive binding assays were conducted on a Synergy4 (BioTek Instruments, Winooski, VT, USA) microplate reader using the F96 Black ELIAS Plate (Xinyou Biotechnology, Hangzhou, China). Probe 1-NPN and the tested ligands were dissolved in spectrophotometric-grade methanol to generate 1.0 mM stock solutions. The fluorescence probe 1-NPN was excited at 337 nm, and emission spectra were recorded between 390 and 490 nm. Initially, to test the binding constants of 1-NPN to the CpomGOBP2, a 2.0 µM solution of protein in 50 mM Tris-HCl (pH = 7.4) was titrated with 1 mM of 1-NPN to achieve various concentrations. Next, the competitive binding of each odorant (Table 1) was examined using 1-NPN as a fluorescent reporter and the odorant as a competitor. The concentrations of protein and 1-NPN were both 2.0 µM; the odorant was included after the protein and 1-NPN were added into the well of the ELIAS Plate for 2 min. The final concentrations of each competitor were 2, 4, 6, 8, 10, 12, 14, 16, 18, and 20 µM. After 2 min of odorant addition, the fluorescence intensity was measured and documented. The volume of mixed solution in each well was maintained at 250 µL. Each interaction was conducted in triplicate.

CpomGOBP2c (Cydia pomonella), sequence (J7GAV3 entry or part of it): as the sequence (J7GAV3 entry or part of it) above

Turning to `c1ccc(Nc2cccc3ccccc23)cc1` [1-NPN], the Kd in test [1] is 18.9 µM; on CpomGOBP2b, 27.5 µM; at CpomGOBP2a (2.0 µM protein in 50 mM Tris-HCl pH 7.4 titrated with 1-NPN, read-out: dissociation constant with 1-NPN) it was 12.6 µM.
Regarding `CCCCCCCC(=O)OCCCC` [butyl octanoate], on CpomGOBP2a, the Ki came to 8.6 µM.
Same read-out and setting: in the case of `C/C=C/C=C/CCCCCCCO` [codlemone] it was 22.7 µM; in that of `CCCCC/C=C\C=C\C(=O)OCC` [ethyl (2E,4Z)-deca-2,4-dienoate], 9.15 µM; in that of `CC(=O)CC/C=C(\C)CCC=C(C)C` [geranylacetone], 22.9 µM.

As a reminder, the Ki is the dissociation constant of the complex between target and ligand, obtained from inhibition or displacement.

Values taken from article PMC10855334, “Molecular and Functional Characterization of Three General Odorant-Binding Protein 2 Genes in Cydia pomonella (Lepidoptera: Tortricidae)” (International Journal of Molecular Sciences, 2024).
